# In US6727264B1 (Synaptic Pharmaceutical Corporation, priority 2001, dated 2004):
# Read-outs that look alike come from different tables or passages of the source.
# Target: rat MCH-1 (Rattus norvegicus, UniProt P97639)
# Assay: Radioligand binding assay at cloned rat MCH1 receptor ([3H] Compound A)
# Design: host or cells: Peak rapid 293 (Peakr293) cells, transient calcium phosphate transfection, membranes
# Settings: cloned rat MCH1 receptor, 0.08 nM [3H] Compound A, read-out: Ki (nM) rMCH1
# Sequence of rat MCH-1 (P97639 whole entry): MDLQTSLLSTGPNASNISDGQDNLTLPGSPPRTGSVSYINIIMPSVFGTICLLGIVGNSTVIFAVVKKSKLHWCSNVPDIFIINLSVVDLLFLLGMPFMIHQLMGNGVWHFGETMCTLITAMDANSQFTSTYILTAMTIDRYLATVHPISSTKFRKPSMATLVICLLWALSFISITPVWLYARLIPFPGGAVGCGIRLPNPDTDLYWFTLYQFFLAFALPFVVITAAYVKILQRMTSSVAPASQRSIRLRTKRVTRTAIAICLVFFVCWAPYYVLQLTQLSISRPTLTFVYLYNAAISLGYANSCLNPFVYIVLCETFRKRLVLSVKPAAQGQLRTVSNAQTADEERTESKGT
Structure (SMILES),Ki (Peakr293 cell membranes) [nM],Ki (membranes from Peakr293 cells) [nM]
CC(C)C(=O)Nc1cccc(C2CCN(Cc3cn(-c4cccc(Cl)c4)c4ccccc34)CC2)c1 [Example 458],15.3,–
"Cc1onc(-c2c(Cl)cccc2Cl)c1C(=O)OC(CCCN1CCC(c2cccc(NC(=O)C(C)C)c2)CC1)c1ccccc1 (centres unmarked) [Example 284, 4-{4-[3-(ISOBUTYRYLAMINO)PHENYL]-1-PIPERIDINYL}-1-PHENYLBUTYL 3-(2,6-DICHLOROPHENYL)-5-METHYL-4-ISOXAZOLECARBOXYLATE]",–,16.3
"Cc1onc(-c2ccccc2Cl)c1C(=O)OCCCCN1CCC(c2cccc(NC(=O)C(C)C)c2)CC1 [Example 292, 4-{4-[3-(ISOBUTYRYLAMINO)PHENYL]-1-PIPERIDINYL}BUTYL 3-(2-CHLOROPHENYL)-5-METHYL-4-ISOXAZOLECARBOXYLATE]",–,18.4
CC(=O)c1cccc(OCCCCCN2CCC(c3cccc(NC(=O)C4CC4)c3)CC2)c1 [Example 382],–,319
CC(C)C(=O)Nc1cccc(C2CCN(CC[C@H](NC(=O)Nc3ccccc3)c3ccccc3)CC2)c1 [Example 605],94.5,–
Cc1ccc2[nH]c(-c3cccc(Cl)c3)c(CCCN3CCC(c4cccc(NC(=O)C(C)C)c4)CC3)c2c1 [Example 727],3.4,–
"COC(=O)c1ccc2c(CN3CCC(c4cccc(NC(=O)C(C)C)c4)CC3)c[nH]c2c1 [Example 498, METHYL 3-({4-[3-(ISOBUTYRYLAMINO)PHENYL]-1-PIPERIDINYL}METHYL)-1H-INDOLE-6-CARBOXYLATE]",52.2,–
CC(C)C(=O)Nc1cccc(C2CCN(CCCc3c(-c4cccc(Br)c4)[nH]c4ccc(OC(F)(F)F)cc34)CC2)c1 [Example 751],12.4,–
CC(C)C(=O)Nc1cccc(C2CCN(Cc3ccc(-c4ccccc4)cc3)CC2)c1 [Example 260],–,77.7
CC(C)C(=O)Nc1cccc(C2CCN(C[C@@H](C)COc3ccccc3Cl)CC2)c1 [Example 368],–,313
O=C(Nc1cccc(C2CCN(Cc3cn(-c4ccc(Cl)cc4)c4ccccc34)CC2)c1)C1CC1 [Example 462],12.4,–
CC(C)C(=O)Nc1cccc(C2CCN(Cc3ccc4c(ccn4-c4ccc(Cl)cc4)c3)CC2)c1 [Example 838],11.2,–
Cc1cccc2c(CCCN3CCC(c4cccc(NC(=O)C(C)C)c4)CC3)c(-c3ccc([N+](=O)[O-])cc3)[nH]c12 [Example 779],7.6,–
COc1cccc(-n2cc(CN3CCC(c4cccc(NC(=O)C(C)C)c4)CC3)c3ccccc32)c1 [Example 451],18.7,–
Cc1ccc(OC(CCN2CCC(c3cccc(NC(=O)C(C)C)c3)CC2)c2ccc(Br)cc2)c(Cl)c1 (centres unmarked) [Example 150],–,8
COc1cccc2c(CN3CCC(c4cccc(NC(=O)C(C)C)c4)CC3)cn(-c3ccccc3)c12 [Example 511],6,–
CC(C)C(=O)Nc1cccc(C2CCN(CCCc3c(-c4ccc(C(F)(F)F)cc4)n(-c4ccccc4)c4ccccc34)CC2)c1 [Example 685],82.4,–
CC(=O)c1cccc(O[C@@H](CCN2CCC(c3cccc(NC(=O)C4CC4)c3)CC2)c2ccccc2)c1 [Example 340],–,15.6
CC(C)C(=O)Nc1cccc(C2CCN(Cc3cn(-c4ccccc4[N+](=O)[O-])c4ccccc34)CC2)c1 [Example 446],17.9,–
Cc1cccc2c(CCN3CCC(c4cccc(NC(=O)C(C)C)c4)CC3)c[nH]c12 [Example 409],96.7,–
CC(C)C(=O)Nc1cccc(C2CCN(Cc3cn(-c4ccccc4)c4ccccc34)CC2)c1 [Example 93],–,4.2
CC(=O)c1ccccc1OC(CCN1CCC(c2cccc(NC(=O)C(C)C)c2)CC1)c1ccc(Cl)cc1 (centres unmarked) [Example 169],–,7.7
CC(C)C(=O)Nc1cccc(C2CCN(CCCC(=O)c3ccc(C(C)C)cc3)CC2)c1 [Example 943],102,–

Structure (SMILES),Ki (Peakr293 cell membranes) [nM],Ki (membranes from Peakr293 cells) [nM]
CC(C)C(=O)Nc1cccc(C2CCN(CCCCC(=O)c3ccccc3C(F)(F)F)CC2)c1 [Example 663],73.4,–
CCCc1nn(-c2ccccc2)cc1C(=O)N[C@@H](CCN1CCC(c2cccc(NC(=O)C(C)C)c2)CC1)c1ccccc1 [Example 321],–,50.9
CC(C)C(=O)Nc1cccc(C2CCN(CCCCCSc3ccccc3)CC2)c1 [Example 586],42.9,–
CC(C)C(=O)Nc1cccc(C2CCN(CCC(=O)c3ccccc3)CC2)c1 [Example 121],–,184
O=C(CCCCN1CCC(c2cccc(NC(=O)C3CC3)c2)CC1)c1cccc(Cl)c1 [Example 564],28.9,–
CC(C)C(=O)Nc1cccc(C2CCN(CCCc3c(-c4cccc(F)c4)n(-c4ccccc4)c4ccccc34)CC2)c1 [Example 702],27,–
CC(C)C(=O)Nc1cccc(C2CCN(CCCOc3ccccc3F)CC2)c1 [Example 343],–,195
CC(C)C(=O)Nc1cccc(C2CCN(Cc3ccc(-c4cc(C(F)(F)F)n(C)n4)s3)CC2)c1 [Example 238],–,65.9
CC(C)C(=O)Nc1cccc(C2CCN(CCCCCC(Oc3ccc(F)cc3)c3ccc(F)cc3)CC2)c1 (centres unmarked) [Example 897],6.4,–
CC(C)C(=O)Nc1cccc(C2CCN(CCC(Oc3ccc(Cl)cc3)c3ccc4c(c3)CCC4)CC2)c1 (centres unmarked) [Example 168],–,7
CC(C)C(=O)Nc1cccc(C2CCN(CCCc3c(-c4ccc(I)cc4)n(C)c4ccccc34)CC2)c1 [Example 748],3.1,–
CC(C)C(=O)Nc1cccc(C2CCN(C[C@H](C)COc3cccc(Br)c3)CC2)c1 [Example 364],–,144
O=C(Nc1cccc(C2CCN(Cc3c[nH]c4c([N+](=O)[O-])cccc34)CC2)c1)C1CC1 [Example 514],151,–
CC(C)C(=O)Nc1cccc(C2CCN(CCCc3c(-c4ccc(I)cc4)[nH]c4ccc(OC(F)(F)F)cc34)CC2)c1 [Example 744],47.1,–
CC(C)C(=O)Nc1cccc(C2CCN(Cc3c(-c4ccccc4)n(C)c4ccccc34)CC2)c1 [Example 428],132,–
CC(C)C(=O)Nc1cccc(C2CCN(CCCCCCNC(=O)c3cnn(-c4ccc([N+](=O)[O-])cc4)c3C(F)(F)F)CC2)c1 [Example 624],47.8,–
CC(C)C(=O)Nc1cccc(C2CCN(CCCc3c(-c4cccc(I)c4)[nH]c4ccc(OC(F)(F)F)cc34)CC2)c1 [Example 741],2.8,–
CC(C)C(=O)Nc1cccc(C2CCN(CCCC/C(=N\Nc3ccc(OC(F)(F)F)cc3)c3ccc([N+](=O)[O-])cc3)CC2)c1 [Example 780],64.3,–
CC(C)C(=O)Nc1cccc(C2CCN(CCC(Oc3cccc(Cl)c3)c3ccc(F)cc3)CC2)c1 (centres unmarked) [Example 143],–,8.7
CC(=O)c1cccc(OC(CCCCN2CCC(c3cccc(NC(=O)C(C)C)c3)CC2)c2ccccc2)c1 (centres unmarked) [Example 927],60.7,–
CC(C)C(=O)Nc1cccc(C2CCN(CCCCC(=O)c3ccc(F)cc3)CC2)c1 [Example 662],50.3,–
O=C(CCCCN1CCC(c2cccc(NC(=O)C3CC3)c2)CC1)c1ccc(C(F)(F)F)cc1 [Example 565],49.2,–
CC(C)C(=O)Nc1cccc(C2CCN(CCCCC(=O)c3ccc([N+](=O)[O-])cc3)CC2)c1 [Example 661],33.3,–

Structure (SMILES),Ki (Peakr293 cell membranes) [nM],Ki (membranes from Peakr293 cells) [nM]
O=C(Nc1cccc(C2CCN(Cc3c[nH]c4cc(F)ccc34)CC2)c1)C1CC1 [Example 469],479,–
CC(C)C(=O)Nc1cccc(C2CCN(CCC(Oc3ccc(F)cc3)c3ccc(Cl)cc3)CC2)c1 (centres unmarked) [Example 183],–,4
CC(C)C(=O)Nc1cccc(C2CCN(Cc3ccc(Oc4ccc(F)c(F)c4)cc3)CC2)n1 [Example 266],–,6.4
CC(C)C(=O)Nc1cccc(C2CCN(CCCc3c(-c4ccccc4I)[nH]c4ccccc34)CC2)c1 [Example 790],4.4,–
Cc1ccc(NC(=O)C(C)C)cc1C1CCN(CCCC(c2ccc(F)cc2)c2ccc(F)cc2)CC1 [Example 275],–,3.1
CC(C)C(=O)Nc1cccc(C2CCN(CCCCNC(=O)c3ccc(Oc4cc(Cl)cc(Cl)c4)o3)CC2)c1 [Example 656],49.7,–
CC(C)C(=O)Nc1cccc(C2CCN(Cc3cccc4c3ccn4-c3cccc(Cl)c3)CC2)c1 [Example 858],44.9,–
Cc1ccc(S(=O)(=O)N[C@@H](CCN2CCC(c3cccc(NC(=O)C(C)C)c3)CC2)c2ccccc2)cc1 [Example 595],36.3,–
O=C(CCCCN1CCC(c2cccc(NC(=O)C3CC3)c2)CC1)c1cccc(F)c1 [Example 549],39.7,–
O=C(CCCCN1CCC(c2cccc(NC(=O)C3CC3)c2)CC1)c1ccccc1C(F)(F)F [Example 560],55.7,–
CC(C)C(=O)Nc1cccc(C2CCN(CCCc3c(-c4ccccc4)[nH]c4ccc(OC(F)(F)F)cc34)CC2)c1 [Example 389],–,2.2
CC(=O)c1cccc(OC(CCN2CCC(c3cccc(NC(=O)C(C)C)c3)CC2)c2ccc3c(c2)CCC3)c1 (centres unmarked) [Example 155],–,7.4
Cc1cccc(-n2ccc3c(CN4CCC(c5cccc(NC(=O)C(C)C)c5)CC4)cccc32)c1C [Example 874],247,–
CC(C)C(=O)Nc1cccc(C2CCN(Cc3ccc4c(ccn4-c4cccc(Cl)c4)c3)CC2)c1 [Example 842],15.8,–
CC(C)C(=O)Nc1cccc(C2CCN(CCCc3c(-c4ccc(Cl)cc4)[nH]c4c3ccc3ccccc34)CC2)c1 [Example 707],19.6,–
CC(C)C(=O)Nc1cccc(C2CCN(CCCCNC(=O)Nc3ccc(-c4ccccc4)cc3)CC2)c1 [Example 660],129,–
CC(C)C(=O)Nc1cccc(C2CCN(CCC(Oc3ccc(Br)cc3)c3ccc(F)cc3)CC2)c1 (centres unmarked) [Example 135],–,10.9
COc1ccc(-n2ccc3cc(CN4CCC(c5cccc(NC(=O)C(C)C)c5)CC4)ccc32)cc1 [Example 100],–,27.5
CC(C)C(=O)Nc1cccc(C2CCN(CC[C@H](NC(=O)c3ccc(N(C)C)cc3)c3ccccc3)CC2)c1 [Example 322],–,99.9
CCC(=O)Nc1cccc(C2CCN(CCCCC(=O)c3cccc(C(F)(F)F)c3)CC2)c1 [Example 571],88.3,–
CC(C)C(=O)Nc1cccc(C2CCN(CC[C@H](NC(=O)c3ccc(-c4ccccc4)cc3)c3ccccc3)CC2)c1 [Example 308],–,402
"Cc1onc(-c2ccccc2)c1C(=O)OCCCN1CCC(c2cccc(NC(=O)C(C)C)c2)CC1 [Example 293, 3-{4-[3-(ISOBUTYRYLAMINO)PHENYL]-1-PIPERIDINYL}PROPYL 5-METHYL-3-PHENYL-4-ISOXAZOLECARBOXYLATE]",–,39.9
